ChEMBL document CHEMBL4043262, “Plasma-induced dimerization of phloridzin as a new class of anti-adipogenic agents” (Bioorg Med Chem Lett, 2017)

Columns and labels:
[1] = biological target: T1, Pancreatic triacylglycerol lipase (Sus scrofa, UniProt P00591); assay: Inhibition of porcine pancreatic lipase using p-nitrophenyl butyrate as substrate pretreated for 15 mins followed by substrate addition measured after 15 mins by spectrophotometric method
T1 sequence (P00591 whole entry): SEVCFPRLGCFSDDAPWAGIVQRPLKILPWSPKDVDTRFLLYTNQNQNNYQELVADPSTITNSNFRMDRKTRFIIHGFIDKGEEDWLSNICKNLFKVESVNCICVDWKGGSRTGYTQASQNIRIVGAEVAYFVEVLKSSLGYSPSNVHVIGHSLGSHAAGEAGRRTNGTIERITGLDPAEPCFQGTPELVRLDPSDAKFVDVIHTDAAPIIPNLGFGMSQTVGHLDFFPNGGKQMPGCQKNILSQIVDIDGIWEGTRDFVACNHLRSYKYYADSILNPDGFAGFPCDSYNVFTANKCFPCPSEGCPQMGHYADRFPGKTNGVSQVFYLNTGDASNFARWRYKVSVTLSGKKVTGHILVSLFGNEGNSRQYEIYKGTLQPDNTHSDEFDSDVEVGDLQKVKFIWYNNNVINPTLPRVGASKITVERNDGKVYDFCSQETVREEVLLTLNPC

3T3-L1 [2] = assay: Cytotoxicity against mouse 3T3L1 cells up to 48 hrs by MTT assay; format: cell-based; conditions: 3t3-l1, 48 h
3T3-L1 [3] = assay: Anti-adipogenic activity in mouse 3T3L1 cells assessed as reduction in lipid accumulation at 100 uM administered for 8 days measured post last dose by Oil Red O staining based assay relative to control; format: functional; design: scale not given: the % may be the effect or the level left
3T3-L1 [4] = assay: Anti-adipogenic activity in mouse 3T3L1 cells assessed as reduction in lipid accumulation at 50 uM administered for 8 days measured post last dose by Oil Red O staining based assay relative to control; format: functional; design: scale not given: the % may be the effect or the level left
3T3-L1 [5] = assay: Anti-adipogenic activity in mouse 3T3L1 cells assessed as reduction in lipid accumulation at 25 uM administered for 8 days measured post last dose by Oil Red O staining based assay relative to control; format: functional; design: scale not given: the % may be the effect or the level left
[6] = biological target: T1, Pancreatic triacylglycerol lipase; assay: Inhibition of porcine pancreatic lipase using p-nitrophenyl butyrate as substrate pretreated for 15 mins followed by substrate addition measured after 15 mins in presence of plasma by spectrophotometric method

IC50 [1] [µM] | IC50 [6] [µM] | Compound | Activity (3T3-L1 [2]) | Activity (3T3-L1 [3]) [%] | Activity (3T3-L1 [4]) [%] | Activity (3T3-L1 [5]) [%]
14.7 |  | O=C(CCc1ccc(O)cc1)c1c(O)cc(O)c(Cc2c(O)cc(O[C@@H]3O[C@H](CO)[C@@H](O)[C@H](O)[C@H]3O)c(C(=O)CCc3ccc(O)cc3)c2O)c1O | Non-Toxic |  |  | 
5.2 |  | O=C(CCc1ccc(O)cc1)c1c(O)cc(O)c(Cc2c(O)cc(O)c(C(=O)CCc3ccc(O)cc3)c2O)c1O | Non-Toxic | 36.5 | 45.7 | 60.3
> 300 | 68.3 | O=C(CCc1ccc(O)cc1)c1c(O)cc(O)cc1O[C@@H]1O[C@H](CO)[C@@H](O)[C@H](O)[C@H]1O [PHLORIZIN] | Non-Toxic |  |  | 
50.4 |  | O=C(CCc1ccc(O)cc1)c1c(O)cc(O)cc1O [PHLORETIN] | Non-Toxic |  |  | 
257 |  | O=C(CCc1ccc(O)cc1)c1c(O[C@@H]2O[C@H](CO)[C@@H](O)[C@H](O)[C@H]2O)cc(O)c(Cc2c(O)cc(O[C@@H]3O[C@H](CO)[C@@H](O)[C@H](O)[C@H]3O)c(C(=O)CCc3ccc(O)cc3)c2O)c1O | Non-Toxic |  |  | 
